# Results from patent publication US11542475B2, “3D microphysiologic system” (Northwestern University, priority 2014, dated 2023).
# Key:
# [1] = test system: human fallopian tube epithelium; experiment: Fallopian epithelia cilia beating quantification; format: cell-based; conditions: 7 days culture; P4 added to E2
# Experimental: Human fallopian tissue was obtained from routine hysterectomies from women in their reproductive years (ages range from 26 to 50 years old) and who had not undergone exogenous hormonal treatment for at least three months prior to surgery. Informed consent was obtained from each patient and approval granted by the ethics committee of the Northwestern University. Human fallopian tissue was kept in the DMEM/F12 medium with 10% FBS on ice and processed within 24 hours. The tissue was washed with warm PBS solution two times before being transferred into warm dissection medium (Liebowitz 15 with 0.5% P/S and 10% FBS). After cleaning connective tissue from outside of the fallopian tissue, the fallopian tube was cut open and the inner epithelia layer was mechanically dissected using forceps. […]
# Fallopian epithelia layers were cultured in estradiol (E2) 1 nM, E2 1 nM+progesterone (P4) 10 nM, E2 0.1 nM+P4 50 nM or with solvent only negative control for 7 days. Cilia beating movies were acquired using an Andor Spinning Disk Confocal with 5 ms exposure time and 5 ms readout time. […] The Multiple Kymograph plugin for the NIH ImageJ software was used to quantify cilia beating frequency. In each movie, 8 clusters of cilia were picked for the cilia beating quantification.
# [2] = test system: OVGP1 expression in human fallopian epithelium; experiment: OVGP1 immunoblot of cultured fallopian epithelium lysate; format: cell-based
# Experimental: Human fallopian tissue was obtained from routine hysterectomies from women in their reproductive years (ages range from 26 to 50 years old) and who had not undergone exogenous hormonal treatment for at least three months prior to surgery. Informed consent was obtained from each patient and approval granted by the ethics committee of the Northwestern University. Human fallopian tissue was kept in the DMEM/F12 medium with 10% FBS on ice and processed within 24 hours. The tissue was washed with warm PBS solution two times before being transferred into warm dissection medium (Liebowitz 15 with 0.5% P/S and 10% FBS). After cleaning connective tissue from outside of the fallopian tissue, the fallopian tube was cut open and the inner epithelia layer was mechanically dissected using forceps. […] Tissue was cultured on 0.4 μm pore Millicell inserts (PICM03050, EMD Millipore Co, Billerica, Mass., USA) twelve-well plates with culture medium in a 37° C. and 5% CO2 incubator. Estrogen (E2) and progesterone (P4) used in tissue culture experiments were purchased from Sigma (St. Louis, Mo.).
# Cultured human fallopian epithelia layers were homogenized with a minipestle in ice-cold lysis buffer (20 mM Tris-HCl, pH 8.0, 137 mM NaCl, 10% glycerol, 1% NP-40, 2 mM EDTA). Lysate normalized for protein content was loaded into NuPAGE 4-12% gradient Bis-Tris precast SDS-PAGE gels and transferred to a nitrocellulose membrane (Life Technologies, Carlsbad, Calif., USA). Blots were probed by polyclonal anti-OVGP1 antibody (LsBio, Cambridge, Mass.) overnight in 4° C. followed by anti-rabbit secondary antibody conjugated to horseradish peroxidase (Zymed, San Francisco, Calif.). Proteins were detected by ECL primer (GE HealthCare Life Sciences, Pittsburgh, Pa.) and exposed to X-ray film (Kodak, Rochester, N.Y.). The same blot was stripped using stripping buffer (Thermo Scientific, Hanover Park, Ill.) and re-probed with monoclonal anti-α-tubulin (Sigma, St. Louis, Mo.) followed by an anti-mouse secondary antibody conjugated to horseradish peroxidase. NIH ImageJ Imaging Software was used to quantify the density of western blot bands. Conditioned medium from fallopian epithelia cultures was collected and probed via western blot analysis using a polyclonal anti-hIGF1 antibody (abcam, Cambridge, Mass.). The blot was detected by the same method described above.
# IL8 = experiment: ELISA of fallopian culture medium: IL8; format: cell-based, human; conditions: 10 nM E2, 7 days, conditioned medium, n=7
# Experimental: Tissues were micro-dissected in alpha-MEM (Gibco, Carlsbad, Calif.) with 1% penicillin-streptomycin (Invitrogen, Carlsbad, Calif.). Individual fimbriae were separated into ˜50 mm^3 pieces. A portion of the tissue was fixed in 2% paraformaldehyde for use as an uncultured control. For optimization studies, fimbriae were cultured without matrix, encapsulated in 0.5% alginate, or encapsulated in 0.5% alginate with 1 mg/ml collagen and 0.1% fibronectin, as previously described for murine cultures (King et al. J Vis Exp. 2011.; herein incorporated by reference in its entirety). For subsequent treatments, 0.5% alginate encapsulated fimbriae were randomly assigned to treatment groups, with at least five fimbriae per condition, per patient, in a 24-well plate containing alpha-MEM and 1% penicillin-streptomycin. […] Prior to fixation, fimbriae were labeled with 10 μM bromodeoxyurine (BrdU, Sigma-Aldrich) for 24 hours to denote proliferating cells. […]
# IL8, VEGF-A, and FGF2 were detected in fallopian culture medium by enzyme-linked immunosorbent assay for human IL8 (EMD Millipore, Billerica, Mass., USA), VEGF-A (RayBiotech, GA, USA), or FGF2 (Abcam) respectively using the manufacturers' protocols. […] Results were normalized to total protein content as determined by western blotting and Ponceau staining to account for difference in tissue size between treatment groups. […]
# p53 stabilization in FTE = experiment: 3D human fimbriae culture: p53 immunohistochemistry; format: cell-based; conditions: 2 and 7 days treatment, n=8
# Experimental: Tissues were micro-dissected in alpha-MEM (Gibco, Carlsbad, Calif.) with 1% penicillin-streptomycin (Invitrogen, Carlsbad, Calif.). Individual fimbriae were separated into ˜50 mm^3 pieces. A portion of the tissue was fixed in 2% paraformaldehyde for use as an uncultured control. For optimization studies, fimbriae were cultured without matrix, encapsulated in 0.5% alginate, or encapsulated in 0.5% alginate with 1 mg/ml collagen and 0.1% fibronectin, as previously described for murine cultures (King et al. J Vis Exp. 2011.; herein incorporated by reference in its entirety). For subsequent treatments, 0.5% alginate encapsulated fimbriae were randomly assigned to treatment groups, with at least five fimbriae per condition, per patient, in a 24-well plate containing alpha-MEM and 1% penicillin-streptomycin. […] Prior to fixation, fimbriae were labeled with 10 μM bromodeoxyurine (BrdU, Sigma-Aldrich) for 24 hours to denote proliferating cells. Fimbriae cultures were fixed (2% paraformaldehyde) followed by dehydration in ethanol and xylene, and embedment in paraffin.
# Sections (5 μm) were cut and stained via hematoxylin and eosin for morphological analysis or immunohistochemistry was performed to localize proteins of interest as previously described (King et al. Endocr Relat Cancer. 2011. 18:627-42.; herein incorporated by reference in its entirety). Slides were rehydrated through an ethanol gradient, prior to 0.1M sodium citrate retrieval and peroxidase block. […]
# Immunohistochemistry images were taken via a Nikon E600 microscope, DXM1200 digital camera and NIS Elements software (Nikon Instruments, Melville, N.Y.). […] BrdU sections were imaged and epithelial cells (CK8 positive) were quantified for proliferation via ImageJ software (NIH, Bethesda, Md.). At least three fimbriae with 200 or more FTE were quantified for each treatment. Analysis of p53 staining was similar, with at least three fimbriae per treatment, per patient analyzed. Samples with p53 expression were quantified utilizing adjacent sections stained for the secretory cell marker PAX8 in a qualitative manner as described.
smiles,measurement,setting,value
"C[C@]12CC[C@@H]3c4ccc(O)cc4CC[C@H]3[C@@H]1CC[C@@H]2O [E2, estradiol]",cilia beating frequency (CBF),[1],significantly increased
same,OVGP1 expression in the fallopian lysate,"[2]; 7 days culture, P4 added to E2",induction
same,OVGP1 expression,"[2]; 28 days stepwise E2 and P4 treatment, P4 in the presence of E2",stimulated
same,IL8 increase compared to vehicle control,IL8,22%±13%
same,p53 stabilization,p53 stabilization in FTE,no factor notably induced p53 stabilization
